Source: patent publication US8962633B2, “Methods of treatment and prevention of metabolic bone diseases and disorders” (Thomas Jefferson University, priority 2007, dated 2015)

Experiments:
[1] = system: MLO-A5 osteoblastic cells; experiment: Alkaline phosphatase staining (osteoblast differentiation) of MLO-A5 cells; type: cell-based, mice; details: vs control
Method: (§1) Alkaline Phosphatase and Alizarin Red Staining. Alizarin Red and Alkaline Phosphatase Staining are bone marker proteins indicating the degree of mineralization and intensity of osteblast differentiation, respectively. MLO-A5 osteoblastic cells (isolated from 14-day-old osteocalcin promoter-driven T-antigen transgenic mice, J Bone Miner Res 12:2014-2023, 1997) were cultured on Collagen1 coated plates at density 15000 cells/well in 12-well TC plates. After 24 hours, the cells were treated w/10 mM β-GP and LysoPC at 5 μM concentration for 3 and 7 days. Treatment was repeated every other day. At each time point alizarin red and alkaline phosphatase staining was performed. Alkaline phosphatase Detection Kit (Chemicon, Intl., Temecula, Calif., SCR004) was used for detection and performed as per manufactures instructions. To visualize mineralization the cells were washed once with a 2% Alizarin Red S solution for 5-10 min. at room temperature followed by one wash with water, two washes with PBS and fixation with paraformaldehyde. The results were then imaged with a digital cooled CCD camera.

[2] = system: MLO-A5 cells; experiment: CyQUANT cell proliferation assay in MLO-A5 cells; type: cell-based, mice; details: 5 μM LysoPC, 18 hours, vs non-treated cells
Method: Cell Proliferation. MLO-A5 cells were plated in 48-well TC dishes at a density of 5,000 cells/well and allowed to attach (5-6 hrs.). The cells were treated with 5 uM of Lyso PC for 18 hrs followed by analysis with the CyQUANT Cell Proliferation Assay Kit (Molecular Probes) following manufacturers instructions to measure MLO-A5 proliferation.

[3] = system: MLO-A5 osteoblastic cells; experiment: Alizarin Red staining (mineralization) of MLO-A5 cells; type: cell-based, mice; details: 5 μM LysoPC, 7 days, vs non-treated control cells
Method: as §1

[4] = system: diabetic/hypercholesterolemic pig model (DM/HC); experiment: TUNEL assay of trabecular bone in DM/HC pigs; type: in vivo; details: treated vs non-treated DM/HC pigs, n=4 per group
Method: (§2) Animal model: A diabetic/diabetic hypercholestrolemic pig model (DM/HC) was developed that mimics human-like atherosclerosis. Domestic Yorkshire boars weighing 25-30 kg and aged ˜4 months were castrated and made diabetic with a single intravenous injection of 125 mg/kg of streptozotocin (Sicor Pharmaceuticals, Irvine, Calif.). After stabilized for 1-2 weeks, the animals with elevated levels of plasma glucose (>150 mg/dl) were fed with atherogenic (high-fat) diet as shown in Table 1 (Animal Specialties, Quakertown, Pa.) to achieve a cholesterol level of approximately 250-800 mg/dl.
(§3) At one month after stabilization of choleresterol at 250-800 mg/dl, the animals were randomized into two experimental groups, DM/HC (hyperglycemia and hypercholesterolemia) group with no treatment and treatment group (10 mg/kg/day of SB-480848, also referred to as 1-(N-(2-(diethylamino)ethyl)-N-(4-(4-trifluoromethylphenyl)benzyl)-aminocarbonylmethyl)-2-(4-fluorobenzyl)thio-5,6-trimethylenepyrimidin-4-one). The animals were sacrificed at 6-month after the randomization. The animal protocol has been approved by the Institutional Animal Care and Use Committee of University of Pennsylvania.
Daily dosing began on Day 29, at which time each test animal was given a daily dose of 10 mg/kg SB-480848 (given as bolus equivalent in dog food). […]
TUNEL Assay. Apoptosis was measured by the TUNEL assay. […]

[5] = Body weight and general observation of DM/HC pigs during the study; type: in vivo, pig
Method: as §2, §3
(§4) Daily dosing began on Day 29, at which time each test animal was given a daily dose of 10 mg/kg SB-480848 (given as bolus equivalent in dog food). Animals were NPO from midnight the night before. […]

[6] = system: diabetic/hypercholesterolemic pig model (DM/HC); experiment: MicroCT analysis of trabecular bone (medial femoral condyle) in the DM/HC pig model; type: in vivo; details: for SMI (structural model index) / Tb.Th (trabecular thickness): 10 mg/kg/day
Method: Animal model: A diabetic/diabetic hypercholestrolemic pig model (DM/HC) was developed that mimics human-like atherosclerosis. Domestic Yorkshire boars weighing 25-30 kg and aged ˜4 months were castrated and made diabetic with a single intravenous injection of 125 mg/kg of streptozotocin (Sicor Pharmaceuticals, Irvine, Calif.). […] The animals were sacrificed at 6-month after the randomization. The animal protocol has been approved by the Institutional Animal Care and Use Committee of University of Pennsylvania. Daily dosing began on Day 29, at which time each test animal was given a daily dose of 10 mg/kg SB-480848 (given as bolus equivalent in dog food). Animals were NPO from midnight the night before. Animals were euthanized on Day 196 and tissues harvested immediately. Tissue sampling: The right knee joint was removed and dissected. The femoral bone was split in half in parallel to the long axis of the bone. A piece of bone including both the articular surface and growth plate region (˜15-20 mm) was sliced off from the front and parallel to the femoral shaft (FIG. 1). The tissues were fixed in 4% paraformaldehyde and scanned within one week in a μCT scanner (μCT-40, Scanco Corp.) with a voxel resolution of 20 μm. MicroCT Analysis—Micro CT analysis generates 3 dimensional data including bone density and indices of micro-architecture. From the central region, i.e., between the articular surface (top) and the growth plate (bottom), 250 slices (˜[…]) were analyzed. To avoid artifact, the measurements were contoured away from the regions directly below the articular surface and the cutting edges. Paraformaldehyde fixed tissues (2×2 cm) were analyzed using microCT 40 (Scanco Medical, Bassersdorf, Switzerland) and a 3D reconstruction of the images slices was generated. The tissues were scanned at a medium resolution with slice thickness and slice increments of 20 μm. […] Scanning was performed at an energy setting of 70000 (V) and an intensity of 114 (μA) with an integration time of 200 ms. All values for tissue volume (mm3), bone volume (mm3), bone volume/tissue volume, and mean/density (mg HA/ccm) were also calculated and recorded. […] The image density was measured with the Distance3D tool of the μCT Evaluation Program V5.0.

[7] = system: diabetic/hypercholesterolemic pig model (DM/HC); experiment: Histochemical staining (H&E-AB) of bone marrow in DM/HC pigs; type: in vivo; details: treated vs non-treated DM/HC pigs
Method: as §2, §3, §4

[8] = DM/HC pigs, 10 mg/kg/day SB-480848, sacrificed Day 196
[9] = DM/HC pigs, 10 mg/kg/day SB-480848, sacrificed Day 196, listed as Lp-PLA2 inhibitor

| Compound | alkaline phosphatase staining ([1]; 5 μM LysoPC, 7 day treatment) | alkaline phosphatase staining ([1]; at least 5 μM LysoPC (5 and 20 μM), 7 days) | proliferation [2] | mineralization (Alizarin Red staining) [3] | death of osteocytes and osteoblasts (TUNEL positive cells) [4] | weight ([5]; treated DM/HC pigs at end of study, baseline 26.9 kg, control animals 50.9 kg) [kg] | responsiveness and activity of the animals ([5]; treated vs control DM/HC pigs, observation) | osteoporotic changes (BV/TV, BS/BV) ([6]; DM/HC pigs treated with inhibitor, in words) | BS/BV (bone surface over bone volume) [6, 8] | BV/TV (bone volume over total volume) [6, 8] | Conn-Dens (connectivity density) [6, 8] | Tb.N (trabecular number) [6, 8] | Tb.Sp (trabecular separation) [6, 8] | SMI (structural model index) [6, 8] | Tb.Th (trabecular thickness) [6, 8] | SMI (structural model index) [6, 9] | Tb.Th (trabecular thickness) [6, 9] | changes in Tb.Sp, TbN and ConnD ([6]; control vs DM/HC vs treated DM/HC animals, in words) | trabecular bone marrow morphology / homeostasis ([7]; H&E-AB staining, trabecular bone areas) | bone marrow remote from trabecular bone [7] |
| --- | --- | --- | --- | --- | --- | --- | --- | --- | --- | --- | --- | --- | --- | --- | --- | --- | --- | --- | --- | --- |
| lyso-phosphatidylcholine [LysoPC] | decreased alkaline phosphatase staining | reduced alkaline phosphatase staining | reduced proliferation | decreased mineralization |  |  |  |  |  |  |  |  |  |  |  |  |  |  |  |  |
| CCN(CC)CCN(Cc1ccc(-c2ccc(C(F)(F)F)cc2)cc1)C(=O)Cn1c(SCc2ccc(F)cc2)nc(=O)c2c1CCC2 [SB480848, 1-(N-(2-(diethylamino)ethyl)-N-(4-(4-trifluoromethylphenyl)benzyl)-aminocarbonylmethyl)-2-(4-fluorobenzyl)thio-5,6-trimethylenepyrimidin-4-one] |  |  |  |  | reduced death of osteocytes and osteoblasts | 62.5 | more responsive to external stimuli | no osteoporotic changes | 24.40 ± 0.51 | 0.25 ± 0.01 | 35.69 ± 1.22 | 2.78 ± 0.06 | 0.33 ± 0.007 | 0.65 ± 0.10 | 0.10 ± 0.002 | degenerative changes were minimized | reduced Tb.Th thickness was prevented | no significant changes | preserved bone marrow homeostasis | prevented DM/HC-induced bone marrow abnormalities |
